Experimental data: ChEMBL document CHEMBL4680076, “Hydraphiles enhance antimicrobial potency against Escherichia coli, Pseudomonas aeruginosa, and Bacillus subtilis” (2016)
In brackets after ≈: the same amount, converted by molar mass. Each block holds one compound with its values, some of them ahead of it. Activity calls are given as the source filed them. The rule behind the calls is not given here.

Experiments:
Escherichia coli [1] = test: Synergistic antimicrobial activity against Escherichia coli K-12 assessed as fold enhancement in rifampicin potency at 0.6 uM incubated for overnight by CLSI method; assay type: functional
Pseudomonas aeruginosa [2] = test: Synergistic antimicrobial activity against Pseudomonas aeruginosa assessed as fold enhancement in tetracycline potency at 1 uM incubated for overnight by CLSI method; assay type: functional
Escherichia coli [3] = test: Synergistic antimicrobial activity against Escherichia coli K-12 assessed as fold enhancement in tetracycline potency at 1.25 uM incubated for overnight by CLSI method; assay type: functional
Pseudomonas aeruginosa [4] = test: Synergistic antimicrobial activity against Pseudomonas aeruginosa assessed as fold enhancement in erythromycin potency at 0.5 uM incubated for overnight by CLSI method; assay type: functional
Pseudomonas aeruginosa [5] = test: Synergistic antimicrobial activity against Pseudomonas aeruginosa assessed as fold enhancement in erythromycin potency at 1 uM incubated for overnight by CLSI method; assay type: functional
Pseudomonas aeruginosa [6] = test: Synergistic antimicrobial activity against Pseudomonas aeruginosa assessed as fold enhancement in rifampicin potency at 0.5 uM incubated for overnight by CLSI method; assay type: functional
Pseudomonas aeruginosa [7] = test: Antimicrobial activity against Pseudomonas aeruginosa assessed as inhibition of bacterial growth incubated for overnight by CLSI method; assay type: functional
Escherichia coli [8] = test: Synergistic antimicrobial activity against Escherichia coli K-12 assessed as fold enhancement in erythromycin potency at 0.6 uM incubated for overnight by CLSI method; assay type: functional
Pseudomonas aeruginosa [9] = test: Synergistic antimicrobial activity against Pseudomonas aeruginosa assessed as fold enhancement in tetracycline potency at 0.5 uM incubated for overnight by CLSI method; assay type: functional
Bacillus subtilis [10] = test: Antimicrobial activity against Bacillus subtilis assessed as inhibition of bacterial growth incubated for overnight by CLSI method; assay type: functional
Escherichia coli [11] = test: Synergistic antimicrobial activity against Escherichia coli K-12 assessed as fold enhancement in kanamycin potency at 0.6 uM incubated for overnight by CLSI method; assay type: functional, organism-based
Bacillus subtilis [12] = test: Synergistic antimicrobial activity against Bacillus subtilis assessed as fold enhancement in erythromycin potency at 0.12 uM incubated for overnight by CLSI method; assay type: functional
Escherichia coli [13] = test: Growth inhibition of Escherichia coli DH5alpha at half MIC measured every 15 mins for 12 hrs in presence of 25 uM erythromycin; assay type: functional, organism-based; settings: DH5[alpha]
Escherichia coli [14] = test: Growth inhibition of Escherichia coli DH5alpha at half MIC measured every 15 mins for 12 hrs; assay type: functional, organism-based; settings: DH5[alpha]
Escherichia coli [15] = test: Synergistic antimicrobial activity against Escherichia coli K-12 assessed as enhancement in rifampicin potency at 2.5 uM; assay type: functional, organism-based
Escherichia coli [16] = test: Synergistic antimicrobial activity against Escherichia coli K-12 assessed as fold enhancement in kanamycin potency at 1.25 uM incubated for overnight by CLSI method; assay type: functional
Escherichia coli [17] = test: Synergistic antimicrobial activity against Escherichia coli K-12 assessed as fold enhancement in erythromycin potency at 1.25 uM incubated for overnight by CLSI method; assay type: functional
Pseudomonas aeruginosa [18] = test: Synergistic antimicrobial activity against Pseudomonas aeruginosa assessed as fold enhancement in rifampicin potency at 1 uM incubated for overnight by CLSI method; assay type: functional
Escherichia coli [19] = test: Antimicrobial activity against Escherichia coli DH5alpha assessed as inhibition of bacterial growth incubated for overnight by CLSI method; assay type: functional; settings: DH5[alpha]
Escherichia coli [20] = test: Antimicrobial activity against Escherichia coli K-12 assessed as inhibition of bacterial growth incubated for overnight by CLSI method; assay type: functional
Escherichia coli [21] = test: Synergistic antimicrobial activity against Escherichia coli K-12 assessed as fold enhancement in tetracycline potency at 0.6 uM incubated for overnight by CLSI method; assay type: functional
Bacillus subtilis [22] = test: Synergistic antimicrobial activity against Bacillus subtilis assessed as fold enhancement in tetracyclin potency at 0.12 uM incubated for overnight by CLSI method; assay type: functional
Escherichia coli [23] = test: Synergistic antimicrobial activity against Escherichia coli K-12 assessed as fold enhancement in rifampicin potency at 1.25 uM incubated for overnight by CLSI method; assay type: functional
Escherichia coli [24] = test: Growth inhibition of Escherichia coli DH5alpha at 25 uM measured every 15 mins for 12 hrs; assay type: functional, organism-based; settings: DH5[alpha]
Escherichia coli [25] = test: Growth inhibition of Escherichia coli DH5alpha at 50 uM measured every 15 mins for 12 hrs; assay type: functional, organism-based; settings: DH5[alpha]
Escherichia coli [26] = test: Synergistic antimicrobial activity against Escherichia coli DH5alpha assessed as fold enhancement in erythromycin potency at 150 uM incubated for overnight by CLSI method; assay type: functional, DH5[alpha]
Escherichia coli [27] = test: Synergistic antimicrobial activity against Escherichia coli DH5alpha assessed as fold enhancement in rifampicin potency at 75 uM incubated for overnight by CLSI method; assay type: functional, DH5[alpha]
Escherichia coli [28] = test: Synergistic antimicrobial activity against Escherichia coli DH5alpha assessed as fold enhancement in tetracycline potency at 150 uM incubated for overnight by CLSI method; assay type: functional, DH5[alpha]
Escherichia coli [29] = test: Synergistic antimicrobial activity against Escherichia coli DH5alpha assessed as fold enhancement in kanamycin potency at 75 uM incubated for overnight by CLSI method; assay type: functional, DH5[alpha]
Escherichia coli [30] = test: Synergistic antimicrobial activity against Escherichia coli DH5alpha assessed as fold enhancement in tetracycline potency at 75 uM incubated for overnight by CLSI method; assay type: functional, DH5[alpha]
[31] = Synergistic antimicrobial activity against Escherichia coli DH5alpha assessed as fold enhancement in erythromycin potency at 75 uM incubated for overnight by CLSI method; assay type: functional, K-12
Escherichia coli [32] = test: Synergistic antimicrobial activity against Escherichia coli DH5alpha assessed as fold enhancement in kanamycin potency at 150 uM incubated for overnight by CLSI method; assay type: functional, DH5[alpha]
Escherichia coli [33] = test: Synergistic antimicrobial activity against Escherichia coli DH5alpha assessed as fold enhancement in rifampicin potency at 150 uM incubated for overnight by CLSI method; assay type: functional, DH5[alpha]

MIC (Pseudomonas aeruginosa [7]): 25 µM (≈ 20.6 µg/mL)
MIC (Escherichia coli [19]): 55 µM (≈ 45.3 µg/mL)
MIC (Escherichia coli [20]): 16 µM (≈ 13.2 µg/mL)
SMILES: CO[C@H]1/C=C/O[C@@]2(C)Oc3c(C)c(O)c4c(O)c(c(/C=N/N5CCN(C)CC5)c(O)c4c3C2=O)NC(=O)/C(C)=C\C=C\[C@H](C)[C@H](O)[C@@H](C)[C@@H](O)[C@@H](C)[C@H](OC(C)=O)[C@@H]1C [RIFAMPIN]

MIC (Pseudomonas aeruginosa [7]): 12 µM (≈ 5.33 µg/mL)
MIC (Bacillus subtilis [10]): 3 µM (≈ 1.33 µg/mL)
MIC (Escherichia coli [19]): 5 µM (≈ 2.22 µg/mL)
MIC (Escherichia coli [20]): 5 µM (≈ 2.22 µg/mL)
SMILES: CN(C)[C@@H]1C(O)=C(C(N)=O)C(=O)[C@@]2(O)C(O)=C3C(=O)c4c(O)cccc4[C@@](C)(O)[C@H]3C[C@@H]12 [TETRACYCLINE]

MIC (Pseudomonas aeruginosa [7]): 200 µM (≈ 147 µg/mL)
MIC (Bacillus subtilis [10]): 0.3 µM (≈ 0.22 µg/mL)
MIC (Escherichia coli [19]): 200 µM (≈ 147 µg/mL)
MIC (Escherichia coli [20]): 700 µM (≈ 514 µg/mL)
SMILES: CC[C@H]1OC(=O)[C@H](C)[C@@H](O[C@H]2C[C@@](C)(OC)[C@@H](O)[C@H](C)O2)[C@H](C)[C@@H](O[C@@H]2O[C@H](C)C[C@H](N(C)C)[C@H]2O)[C@](C)(O)C[C@@H](C)C(=O)[C@H](C)[C@@H](O)[C@]1(C)O [ERYTHROMYCIN]
growth inhibition (GI) (Escherichia coli [24]): inactive
growth inhibition (GI) (Escherichia coli [25]): Active

The remaining lines, values behind:

SMILES: c1ccc(CN2CCOCCOCCN(CCCCCCCCCCCCCCN3CCOCCOCCN(CCCCCCCCCCCCCCN4CCOCCOCCN(Cc5ccccc5)CCOCCOCC4)CCOCCOCC3)CCOCCOCC2)cc1
fold change (FC) (Escherichia coli [1]): 4
fold change (FC) (Pseudomonas aeruginosa [2]): 4
fold change (FC) (Escherichia coli [3]): 5
fold change (FC) (Pseudomonas aeruginosa [4]): 4
fold change (FC) (Pseudomonas aeruginosa [5]): 8
fold change (FC) (Pseudomonas aeruginosa [6]): 5
MIC (Pseudomonas aeruginosa [7]): 2 µM (≈ 2.71 µg/mL)
fold change (FC) (Escherichia coli [8]): 2
fold change (FC) (Pseudomonas aeruginosa [9]): 2
MIC (Bacillus subtilis [10]): 0.5 µM (≈ 0.678 µg/mL)
fold change (FC) (Escherichia coli [11]): inactive
fold change (FC) (Bacillus subtilis [12]): 2
growth inhibition (GI) (Escherichia coli [13]): Active
growth inhibition (GI) (Escherichia coli [14]): inactive
Activity (Escherichia coli [15]): Active
fold change (FC) (Escherichia coli [16]): 2
fold change (FC) (Escherichia coli [17]): 9
fold change (FC) (Pseudomonas aeruginosa [18]): 11
MIC (Escherichia coli [19]): 2 µM (≈ 2.71 µg/mL)
MIC (Escherichia coli [20]): 2.5 µM (≈ 3.39 µg/mL)
fold change (FC) (Escherichia coli [21]): 2
fold change (FC) (Bacillus subtilis [22]): 2
fold change (FC) (Escherichia coli [23]): 30

SMILES: c1ccc(CN2CCOCCOCCN(CCCCCCCCCCCCCCCCN3CCOCCOCCN(CCCCCCCCCCCCCCCCN4CCOCCOCCN(Cc5ccccc5)CCOCCOCC4)CCOCCOCC3)CCOCCOCC2)cc1
fold change (FC) (Pseudomonas aeruginosa [4]): 4
fold change (FC) (Pseudomonas aeruginosa [5]): 8
MIC (Pseudomonas aeruginosa [7]): 2 µM (≈ 2.82 µg/mL)
MIC (Escherichia coli [19]): 4 µM (≈ 5.65 µg/mL)

SMILES: c1ccc(CN2CCOCCOCCN(CCCCCCCCN3CCOCCOCCN(CCCCCCCCN4CCOCCOCCN(Cc5ccccc5)CCOCCOCC4)CCOCCOCC3)CCOCCOCC2)cc1
fold change (FC) (Escherichia coli [26]): 13
fold change (FC) (Escherichia coli [27]): 18
fold change (FC) (Escherichia coli [28]): 5
fold change (FC) (Escherichia coli [29]): 2
Activity (Escherichia coli [15]): inactive
fold change (FC) (Escherichia coli [30]): 2
fold change (FC) [31]: 8
fold change (FC) (Escherichia coli [32]): 3
MIC (Escherichia coli [19]): 300 µM (≈ 356 µg/mL)
MIC (Escherichia coli [20]): 200 µM (≈ 238 µg/mL)
fold change (FC) (Escherichia coli [33]): 18
